Assay results taken from patent US10975099B2, “Thiophene compounds for long-acting injectable compositions and related methods” (Alkermes Pharma Ireland Limited, priority 2018, dated 2021).
Values joined by “and” are separate entries in the source; they are usually repeats but may differ in a detail not shown here. Equal entries are not always repeated.

Columns and labels:
[1] = Whole blood stability assay; assay type: in vitro ADME; conditions: pooled fresh human whole blood, 37 degrees C., prodrug 50 nM; read-out: t1/2 at 37 degrees C. in human whole blood
Experimental: Naltrexone prodrug stability was assessed using freshly collected whole blood (within 24-hr collection) from pooled human (n=3) donors. The incubation mixtures were prepared by spiking the prodrugs into pre-warmed (37 degrees C.) fresh whole blood to a final concentration of 50 nM. After gentle mixing, aliquots of incubation mixtures were immediately transferred into four different 96-deep well plates. One plate was used for each time point. The plates were incubated at 37 degrees C. at a shaking speed of 100 rpm. At time points 15, 30, 60 and 120 minutes, the reaction was quenched by addition of a mixture of water and acetonitrile containing the internal standard (naltrexone-D3). Time point 0 minutes was prepared separately by spiking the prodrugs into a quenched whole blood to obtain a final concentration of 50 nM. All samples were vortexed at a low speed for 15 min and centrifuged at 3900 rpm for 15 min. Supernatants were transferred into 96-well plates for LC-MS/MS analysis to monitor the depletion of the prodrugs and the formation of naltrexone.
The amount of remaining prodrug and released naltrexone for each sample was quantitated against the calibration curves prepared with the whole blood. The human whole blood was purchased from BioreclamationIVT (Westbury, N.Y., USA). Naltrexone-D3 was purchased from Cerilliant® (Round Rock, Tex., USA). […] Where multiple runs have been completed, average values are reported.

[2] = Pharmacokinetic evaluation of the release of naltrexone from Compound 4 in rats following a single intramuscular injection; assay type: in vivo, Sprague-Dawley rats; conditions: for plasma concentrations of parent Compound 4 and the resultant intermediate, in words: over 84 days after single IM dose of Compound 4, limit of quantitation 0.5 ng/mL
Experimental: Five male Sprague-Dawley rats were allowed to acclimate to the test facility for at least 3 days prior to study start. For dose administration of Compound 4, the rats were lightly anesthetized with isofluorane, the hind leg shaved and dosed intramuscularly with the formulation using a 20 G needle. […] Serial whole blood samples were collected via sublingual route (˜150 μL) at 1, 7, and 24 hours post dose, and at 2, 4, 7, 10, 14, 21, 24, 28, 35, 42, 49, 56, 63, 70, 77, and 84 days post dose.
Blood samples were placed into K2EDTA blood collection tubes. After collection, blood samples were maintained chilled (on wet ice) and centrifuged (11,500 rpm for 2 minutes at 5 degrees C.) within 30 minutes to obtain plasma. Plasma was transferred into a single vial, 1.5 mL screw cap micro-centrifuge tube with inserts and stored at −80 degrees C. until analysis.
The formulation dosed was a crystalline suspension of Compound 4 (48.3 milligrams of Compound 4 dosed per animal), wherein the crystalline test article was characterized with a particle size distribution of Dv10=4.0 μm, Dv50=6.4 μm, and Dv90=9.6 μm (as measured via laser diffraction). The formulation was prepared the day before dosing. Details of the formulation dosed are described in Table D below.
Results of the above intramuscular rat study of Compound 4 are shown in Tables E and F. In particular, Table E reports the average blood plasma levels of naltrexone in rat (n=5) over 84 days following intramuscular administration.

With O=C(Cc1cscc1CC(=O)Oc1ccc2c3c1O[C@H]1C(=O)CC[C@@]4(O)[C@@H](C2)N(CC2CC2)CC[C@]314)Oc1ccc2c3c1O[C@H]1C(=O)CC[C@@]4(O)[C@@H](C2)N(CC2CC2)CC[C@]314 [Compound 2, bis((4R,4aS,7aR,12bS)-3-(cyclopropylmethyl)-4a-hydroxy-7-oxo-2,3,4,4a,5,6,7,7a-octahydro-1H-4,12-methanobenzofuro[3,2-e]isoquinolin-9-yl) 2,2′-(thiophene-3,4-diyl)diacetate] the half-life at 50 nM [1] was < 5 min.
Work on O=C(CCc1ccc(CCC(=O)Oc2ccc3c4c2O[C@H]2C(=O)CC[C@@]5(O)[C@@H](C3)N(CC3CC3)CC[C@]425)s1)Oc1ccc2c3c1O[C@H]1C(=O)CC[C@@]4(O)[C@@H](C2)N(CC2CC2)CC[C@]314 [Compound 1, bis((4R,4aS,7aR,12bS)-3-(cyclopropylmethyl)-4a-hydroxy-7-oxo-2,3,4,4a,5,6,7,7a-octahydro-1H-4,12-methanobenzofuro[3,2-e]isoquinolin-9-yl) 3,3′-(thiophene-2,5-diyl)dipropionate] yielded a half-life at 50 nM [1] of 7.2 min.
For O=C(Cc1sc(CC(=O)Oc2ccc3c4c2O[C@H]2C(=O)CC[C@@]5(O)[C@@H](C3)N(CC3CC3)CC[C@]425)c2ccccc12)Oc1ccc2c3c1O[C@H]1C(=O)CC[C@@]4(O)[C@@H](C2)N(CC2CC2)CC[C@]314 [Compound 3, bis((4R,4aS,7aR,12bS)-3-(cyclopropylmethyl)-4a-hydroxy-7-oxo-2,3,4,4a,5,6,7,7a-octahydro-1H-4,12-methanobenzofuro[3,2-e]isoquinolin-9-yl) 2,2′-(benzo[c]thiophene-1,3-diyl)diacetate], the half-life at 50 nM [1] was 41.2 min.
For O=C(Cc1ccc(CC(=O)Oc2ccc3c4c2O[C@H]2C(=O)CC[C@@]5(O)[C@@H](C3)N(CC3CC3)CC[C@]425)s1)Oc1ccc2c3c1O[C@H]1C(=O)CC[C@@]4(O)[C@@H](C2)N(CC2CC2)CC[C@]314 [Compound 4, bis((4R,4aS,7aR,12bS)-3-(cyclopropylmethyl)-4a-hydroxy-7-oxo-2,3,4,4a,5,6,7,7a-octahydro-1H-4,12-methanobenzofuro[3,2-e]isoquinolin-9-yl) 2,2′-(thiophene-2,5-diyl)diacetate], the half-life at 50 nM [1] was 4.19 min, the concentration at 1 day ([2]; male, Sprague-Dawley, rat, plasma, intramuscular, 48.3 mg per animal, rat plasma, individual animals Rat 1-5, day 1 after single IM dose of Compound 4, read-out: Compound 4 conc.) was < 0.5 ng/mL and the concentration at 49 day ([2]; male, Sprague-Dawley, rat, plasma, intramuscular, 48.3 mg per animal, rat plasma, individual animals Rat 1-5, day 49 after single IM dose of Compound 4, read-out: Compound 4 conc.) was < 0.5 ng/mL. The concentration at 56 day ([2]; male, Sprague-Dawley, rat, plasma, intramuscular, 48.3 mg per animal, rat plasma, individual animals Rat 1-5, day 56 after single IM dose of Compound 4, read-out: Compound 4 conc.) was < 0.5 ng/mL, the concentration at 63 day ([2]; male, Sprague-Dawley, rat, plasma, intramuscular, 48.3 mg per animal, rat plasma, individual animals Rat 1-5, day 63 after single IM dose of Compound 4, read-out: Compound 4 conc.) was < 0.5 ng/mL and the concentration at 70 day ([2]; male, Sprague-Dawley, rat, plasma, intramuscular, 48.3 mg per animal, rat plasma, individual animals Rat 1-5, day 70 after single IM dose of Compound 4, read-out: Compound 4 conc.) was < 0.5 ng/mL. The concentration at 77 day ([2]; male, Sprague-Dawley, rat, plasma, intramuscular, 48.3 mg per animal, rat plasma, individual animals Rat 1-5, day 77 after single IM dose of Compound 4, read-out: Compound 4 conc.) was < 0.5 ng/mL, the concentration at 84 day ([2]; male, Sprague-Dawley, rat, plasma, intramuscular, 48.3 mg per animal, rat plasma, individual animals Rat 1-5, day 84 after single IM dose of Compound 4, read-out: Compound 4 conc.) was < 0.5 ng/mL and the concentration at 2 day ([2]; male, Sprague-Dawley, rat, plasma, intramuscular, 48.3 mg/animal, rat plasma, individual animals Rat 1-5, day 2 after single IM dose of Compound 4, read-out: Compound 4 conc.) was < 0.5 ng/mL. For the same molecule, the concentration at 4 day ([2]; male, Sprague-Dawley, rat, plasma, intramuscular, 48.3 mg/animal, rat plasma, individual animals Rat 1-5, day 4 after single IM dose of Compound 4, read-out: Compound 4 conc.) was < 0.5 ng/mL, the concentration at 7 day ([2]; male, Sprague-Dawley, rat, plasma, intramuscular, 48.3 mg/animal, rat plasma, individual animals Rat 1-5, day 7 after single IM dose of Compound 4, read-out: Compound 4 conc.) was < 0.5 ng/mL and the concentration at 10 day ([2]; male, Sprague-Dawley, rat, plasma, intramuscular, 48.3 mg/animal, rat plasma, individual animals Rat 1-5, day 10 after single IM dose of Compound 4, read-out: Compound 4 conc.) was < 0.5 ng/mL. The concentration at 14 day ([2]; male, Sprague-Dawley, rat, plasma, intramuscular, 48.3 mg/animal, rat plasma, individual animals Rat 1-5, day 14 after single IM dose of Compound 4, read-out: Compound 4 conc.) was < 0.5 ng/mL, the concentration at 21 day ([2]; male, Sprague-Dawley, rat, plasma, intramuscular, 48.3 mg/animal, rat plasma, individual animals Rat 1-5, day 21 after single IM dose of Compound 4, read-out: Compound 4 conc.) was < 0.5 ng/mL and the concentration at 24 day ([2]; male, Sprague-Dawley, rat, plasma, intramuscular, 48.3 mg/animal, rat plasma, individual animals Rat 1-5, day 24 after single IM dose of Compound 4, read-out: Compound 4 conc.) was < 0.5 ng/mL. For the same molecule, the concentration at 28 day ([2]; male, Sprague-Dawley, rat, plasma, intramuscular, 48.3 mg/animal, rat plasma, individual animals Rat 1-5, day 28 after single IM dose of Compound 4, read-out: Compound 4 conc.) was < 0.5 ng/mL, the concentration at 35 day ([2]; male, Sprague-Dawley, rat, plasma, intramuscular, 48.3 mg/animal, rat plasma, individual animals Rat 1-5, day 35 after single IM dose of Compound 4, read-out: Compound 4 conc.) was < 0.5 ng/mL and the concentration at 42 day ([2]; male, Sprague-Dawley, rat, plasma, intramuscular, 48.3 mg/animal, rat plasma, individual animals Rat 1-5, day 42 after single IM dose of Compound 4, read-out: Compound 4 conc.) was < 0.5 ng/mL. For the same molecule, the Naltrexone conc. ([2]; rat plasma, average, day 84 after single IM dose of Compound 4 crystalline suspension (48.3 mg/animal)) was “BLQ* (BLQ (Below Limit of Quantitation) means <0.5 ng/mL)”, the “Compound 4 conc.” value ([2]; rat plasma, individual animals Rat 1-5, day 0.04 (1 hr) after single IM dose of Compound 4) was <0.5 ng/mL (4×) and 2.11 ng/mL and the “Compound 4 conc.” value ([2]; rat plasma, individual animals Rat 1-5, day 0.3 (7 hr) after single IM dose of Compound 4) was 1.22 ng/mL and <0.5 ng/mL (3×) and 1.05 ng/mL. For the same molecule, the “Compound 4 conc.” value ([2]; rat plasma, individual animals Rat 1-5, day 1 after single IM dose of Compound 4) was <0.5 ng/mL (3×) and 0.501 ng/mL, the “Compound 4 conc.” value ([2]; rat plasma, individual animals Rat 1-5, day 2 after single IM dose of Compound 4) was <0.5 ng/mL and the “Compound 4 conc.” value ([2]; rat plasma, individual animals Rat 1-5, day 4 after single IM dose of Compound 4) was <0.5 ng/mL. The “Compound 4 conc.” value ([2]; rat plasma, individual animals Rat 1-5, day 7 after single IM dose of Compound 4) was <0.5 ng/mL, the “Compound 4 conc.” value ([2]; rat plasma, individual animals Rat 1-5, day 10 after single IM dose of Compound 4) was <0.5 ng/mL and the “Compound 4 conc.” value ([2]; rat plasma, individual animals Rat 1-5, day 14 after single IM dose of Compound 4) was <0.5 ng/mL. The “Compound 4 conc.” value ([2]; rat plasma, individual animals Rat 1-5, day 21 after single IM dose of Compound 4) was <0.5 ng/mL, the “Compound 4 conc.” value ([2]; rat plasma, individual animals Rat 1-5, day 24 after single IM dose of Compound 4) was <0.5 ng/mL and the “Compound 4 conc.” value ([2]; rat plasma, individual animals Rat 1-5, day 28 after single IM dose of Compound 4) was <0.5 ng/mL. The “Compound 4 conc.” value ([2]; rat plasma, individual animals Rat 1-5, day 35 after single IM dose of Compound 4) was <0.5 ng/mL, the “Compound 4 conc.” value ([2]; rat plasma, individual animals Rat 1-5, day 42 after single IM dose of Compound 4) was <0.5 ng/mL and the “Compound 4 conc.” value ([2]; rat plasma, individual animals Rat 1-5, day 49 after single IM dose of Compound 4) was <0.5 ng/mL. For the same molecule, the “Compound 4 conc.” value ([2]; rat plasma, individual animals Rat 1-5, day 56 after single IM dose of Compound 4) was <0.5 ng/mL, the “Compound 4 conc.” value ([2]; rat plasma, individual animals Rat 1-5, day 63 after single IM dose of Compound 4) was <0.5 ng/mL and the “Compound 4 conc.” value ([2]; rat plasma, individual animals Rat 1-5, day 70 after single IM dose of Compound 4) was <0.5 ng/mL. For the same molecule, the “Compound 4 conc.” value ([2]; rat plasma, individual animals Rat 1-5, day 77 after single IM dose of Compound 4) was <0.5 ng/mL, the “Compound 4 conc.” value ([2]; rat plasma, individual animals Rat 1-5, day 84 after single IM dose of Compound 4) was <0.5 ng/mL and the “plasma concentrations of parent Compound 4 and the resultant intermediate, in words” value ([2]; rat) was “generally low to not measurable”.
Molecule O=C(Oc1ccc2c3c1O[C@H]1C(=O)CC[C@@]4(O)[C@@H](C2)N(CC2CC2)CC[C@]314)c1ccc(C(=O)Oc2ccc3c4c2O[C@H]2C(=O)CC[C@@]5(O)[C@@H](C3)N(CC3CC3)CC[C@]425)cc1 [Reference Compound A, NTX-3-terephthaloyl-NTX, reference compound] has a half-life at 50 nM [1] of 54.7 min.
In the case of O=C(O)Cc1ccc(CC(=O)Oc2ccc3c4c2O[C@H]2C(=O)CC[C@@]5(O)[C@@H](C3)N(CC3CC3)CC[C@]425)s1 [Compound 4i, 2-(5-(2-(((4R,4aS,7aR,12bS)-3-(cyclopropylmethyl)-4a-hydroxy-7-oxo-2,3,4,4a,5,6,7,7a-octahydro-1H-4,12-methanobenzofuro[3,2-e]isoquinolin-9-yl)oxy)-2-oxoethyl)thiophen-2-yl)acetic acid], the “plasma concentrations of parent Compound 4 and the resultant intermediate, in words” value ([2]; rat) was “generally low to not measurable”.
